The procedure of this assay:
Aqueous solutions of the polymer of Example 5 having various concentrations were prepared, and the freezing point thereof was measured. The freezing point depression was measured with a light microscope with a temperature controller. Firstly, in order to remove any error in the measurement of freezing point due to supercooling, the whole system was previously frozen at −20° C., and then was carefully returned to 0° C. with attention not to dissolve completely the ice nucleus. Then, the system is gradually cooled with observing growth of ice crystal. The freezing point was deemed to be a point at which the growth of ice crystal was stopped and the whole system was frozen.

For “Olymer of L-Alanine-(β-D-galactopyranosyl)-(1→3)-(2-acetamido-2-deoxy-1-α-D-galactopyranosyl)-L-threonine-L-alanine [Example 5]”, the “growth of ice crystal” value (aqueous solution, gradual cooling while observing ice crystal growth) was “inhibited the growth of ice crystal”. Besides, the “freezing point depression activity” value (aqueous solutions of various concentrations, compared with literature data for natural origin AFGP, FIG. 1) is given as “almost the same freezing point depression activity as that of the natural origin AFGP”.

The values above are taken from patent US6602982B1, “Process for the preparation of regular glycopeptides” (Hokkaido Electric Power Company, Incorporated, priority 1998, dated 2003).
